Data as given in patent publication US9241996B2, “Photochemical internalisation of kinase inhibitors” (PCI BIOTECH AS, priority 2008, dated 2016).
Where two headings read alike, the source gives them in different places.

Assays:
EGFR = molecular target: T1, EGFR (Homo sapiens, UniProt P00533); assay: Western blotting of total and phosphorylated EGFR after PDT, AG1478 and the combination; format: cell-based
T1 construct: time dependent effects on total and phosphorylated EGFR after PDT˜LD50, AG1478 (TKI)˜LD50 and the combination treatment in A-431 cells; endogenous in cells; host or cells: A-431 human skin carcinoma cells (ATCC, CRL 1555)
T1 sequence (P00533 25-1210): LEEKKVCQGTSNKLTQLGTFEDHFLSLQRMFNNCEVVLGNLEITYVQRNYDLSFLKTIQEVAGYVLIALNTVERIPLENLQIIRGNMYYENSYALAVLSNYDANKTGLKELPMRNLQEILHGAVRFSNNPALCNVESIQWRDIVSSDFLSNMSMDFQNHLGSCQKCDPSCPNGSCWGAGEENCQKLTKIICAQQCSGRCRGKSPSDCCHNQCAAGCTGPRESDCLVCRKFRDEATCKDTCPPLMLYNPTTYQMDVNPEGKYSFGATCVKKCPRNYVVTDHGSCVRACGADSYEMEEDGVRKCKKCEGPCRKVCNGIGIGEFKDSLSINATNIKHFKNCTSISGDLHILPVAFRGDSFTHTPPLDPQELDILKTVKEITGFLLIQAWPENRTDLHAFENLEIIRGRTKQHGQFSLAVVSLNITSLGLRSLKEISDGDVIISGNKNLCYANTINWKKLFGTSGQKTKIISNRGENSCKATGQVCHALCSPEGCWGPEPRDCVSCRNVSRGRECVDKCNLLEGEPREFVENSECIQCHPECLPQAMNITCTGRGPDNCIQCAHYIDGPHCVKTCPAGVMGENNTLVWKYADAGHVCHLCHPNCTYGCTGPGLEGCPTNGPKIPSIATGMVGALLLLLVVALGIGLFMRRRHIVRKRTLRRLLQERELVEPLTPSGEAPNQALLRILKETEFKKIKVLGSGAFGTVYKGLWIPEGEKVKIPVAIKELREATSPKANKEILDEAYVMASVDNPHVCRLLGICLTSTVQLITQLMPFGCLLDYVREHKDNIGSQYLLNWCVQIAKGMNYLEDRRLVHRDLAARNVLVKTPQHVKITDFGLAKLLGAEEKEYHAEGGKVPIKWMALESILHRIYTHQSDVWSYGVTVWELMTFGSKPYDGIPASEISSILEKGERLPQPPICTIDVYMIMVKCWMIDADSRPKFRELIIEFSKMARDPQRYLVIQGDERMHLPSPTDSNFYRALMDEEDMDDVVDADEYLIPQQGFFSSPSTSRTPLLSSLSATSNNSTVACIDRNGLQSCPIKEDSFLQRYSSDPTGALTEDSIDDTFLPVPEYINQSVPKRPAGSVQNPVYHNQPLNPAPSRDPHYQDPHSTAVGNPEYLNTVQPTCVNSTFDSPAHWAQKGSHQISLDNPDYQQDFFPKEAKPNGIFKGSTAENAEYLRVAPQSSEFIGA
Method: (§1) A-431 cells were seeded out and left to fasten for 6 hrs, or longer as described for the different combination treatment regimes with Tyrphostin AG1478, before an 18 hour incubation with 0.1 ug/ml LumiTrans (TPPS2a, meso-tetraphenylporphine with two sulfonate groups on adjacent phenyl rings) (PCI Biotech AS, Oslo, Norway). The cells were then washed twice with drug free medium and chased in new drug free medium for 4 hrs to wash the TPPS2a off the plasma membrane. Cells were then exposed to blue light from LumiSource (PCT Biotech AS) consisting of 4 light tubes delivering light with λ=[…], maximum at 435 nm and irradiance=13.5 mW/cm^2 at different doses as indicated in the figures.
At indicated times after light exposure the cell-medium was removed and cells were incubated for 2 minutes with 100 ng/ml EGF. Cells were then placed on ice and the sample preparation was performed as described before (Weyergang et al., 2007, Biochem. Pharmacol., 74, p226-235). The same amount of lysed cells from each sample, as measured by the absorption of nucleic acids at 260 nm, was subjected to gel electrophoresis on 12% SDS/polyacrylamide gels and blotted to Hybond-P PVDF membranes (Amersham Biosciences, Amersham Place, UK). Immunodetection was carried out using antibodies from Cell Signal Technology (Cell Signalling Technology Beverly, Mass.); EGFR antibody (#2232), Phospho-EGFR antibody (#2236), Anti-mouse IgG, HRP-linked Antibody (#7076) Anti-rabbit IgG, HRP-linked Antibody (#7074). ECL Plus Western blotting Detection Reagents, STORM and Image Quant from GE Healthcare (GE Healthcare, Amersham Place, UK) was used to detect protein bands on the membrane.

[1] = system: A-431 human skin carcinoma; assay: Growth inhibition (Coulter counting, survival fraction) after PDT with TPPS2a, AG1478 and the combination (Example 3); format: cell-based; conditions: for synergy/antagonism value F: p=0.05
Method: The studies were performed using the EGFR positive cell line A-431 human skin carcinoma (ATCC, CRL 1555). The A-431 cells were subcultured two or three times a week in DMEM (Bio Whitaker Europe, Velviers, Belgium). Media were supplied with 10% fetal calf serum (FCS) (GIBCO BRL, Paisley, UK), 100 U/ml penicillin, 100 U/ml streptomycin (Sigma, St. Loice, MO) and 2 mM glutamine (Bio Whittaker, Velviers, Belgium). The cells were grown and incubated in 75 cm^2 flasks (Nunc, Roskilde, Denmark) at 37° C. in a humidified atmosphere containing 5% CO2.
as §1
Growth inhibition measurements were carried out after incubation of the cells for 72 hrs with different concentrations of AG1478 directly after exposure to light. Cell counting was performed with an in-house made Coulter counter after trypsination and resuspension in PBS. Two parallels of each sample were made, and the experiments were reproduced twice at least.
For each experiment the survival fraction (SF) of cells was found by dividing the number of treated cells by the average number of untreated cells in the two parallels. The expected additive effect was computed as SFadd=SFPDT×SFTKI where SFPDT and SFTKI refers to the observed effect after PDT or TKI treatment alone. SFadd was then compared to the observed effect of the combined treatment, SFcomb, using the synergy/antagonism value F F=log SFadd/log SFComb=log SFTKI+log SFPDT−log SFcorab
Antagonistic effects would result in negative F values. Significant deviations of F from zero were established through t-tests.

[2] = at typical therapeutic doses per patient per day; cited from earlier work
[3] = system: multi-drug resistant NCI-ADR-RES cancer cell line; assay: CellTiter-Blue cell survival after PCI (TPCS2a, LumiSource illumination) with TKI, NCI-ADR-RES; format: cell-based; conditions: for IC50: Homo sapiens, NCI/ADR-RES, read-out: nilotinib dose needed to achieve 50% cell killing
Method: TPCS2a was diluted into growth medium at 0.4 μg/ml (NCI-H460) or 0.8 μg/ml (NCI-ADR-RES) and 25 μl was added to each test well (final assay concentrations 0.2 μg/ml and 0.4 μg/ml, respectively).
The plates were washed 6 times with 50 μl wash buffer using an EMBLA 384-well plate washer.
The plates were washed as before.

[4] = system: NCI-H460 human lung cancer cell line; assay: CellTiter-Blue cell survival after PCI (TPCS2a, LumiSource illumination) with TKI, NCI-H460; conditions: for IC50: Homo sapiens, read-out: nilotinib dose needed to achieve 50% cell killing
A431 cells = assay: Cell survival by MTT assay after TPCS2a photochemical treatment and imatinib (Example 2); format: cell-based, human; conditions: imatinib up to 25 μM
Method: A431 cells (2500 cells/well, 100 μL/well) were seeded into 96-well plates (Nunc, Denmark) and incubated for 5 hours, then 0.1 μg/mL TPCS2a was added and incubated for 18 h (5% v/v CO2, 37° C., DMEM medium with penicillin 100 U/mL, Glutamine 2 mM, Streptomycin 100 μg/mL). […] After a further 72 hours incubation, cell survival was measured by the MTT assay.
The MTT method is based on reduction of a water-soluble tetrazolium salt (MTT) to a purple, insoluble formazan product by mitochondrial dehydrogenases present in living, metabolically active cells. 100 μL medium containing 0.25 μg MTT was added to the cells, followed by 1 h and 30 min of incubation (37° C., 5% v/v CO2). The resulting formazan crystals were dissolved by adding 100 μl DMSO (Sigma, Mo., USA) per well. The 96 well plate was read by a Multiscan EX micro plate reader (Labsystems, Finland) with a 570 nm band pass filter.

[5] = system: A431 human epithelial carcinoma cell line; assay: Cell survival by Coulter Counter after TPCS2a photochemical treatment and imatinib (Example 1); format: cell-based
Method: Cells from the A431 human epithelial carcinoma cell line (75,000 cells/well, 1.5 mL/well) were seeded into 6-well plates (Nunc, Denmark), incubated for 5 hours, then 0.1 μg/mL TPCS2a was added and the cells were further incubated for 18 h (5% v/v CO2, 37° C. in DMEM medium with penicillin 100 U/mL, Glutamine 2 mM, Streptomycin 100 μg/mL). The cells were washed twice with medium (1 mL/well), incubated for 4 hours (37° C., 5% v/v CO2) in serum-containing medium and illuminated for 1, 2 or 4 minutes as shown in FIG. 2.
The cells were washed twice with Trypsin EDTA (200 μL/well) and incubated for 5 minutes (400 μL/well), then 1.5 mL medium was added and the mixture transferred to 10 mL tubes and centrifuged for 3 minutes at 1000 rpm. After removing the medium, 1 mL PBS (Phosphate Buffered Saline) was added and the solution mixed thoroughly. 750 μL was transferred to a beaker with 20 mL PBS and the amount of viable cells was determined with a Coulter Counter apparatus.

For `COc1cc2ncnc(Nc3cccc(Cl)c3)c2cc1OC` [AG1478, Tyrphostin AG1478], the EGFR phosphorylation (EGFR; 4 μM AG1478 alone, 1-4 hrs, A-431 cells) was “strong attenuation of EGFR phosphorylation”, the “EGFR phosphorylation, combination therapy” value (EGFR; PDT (LD50) and AG1478, A-431 cells) was “same decrease in EGFR phosphorylation as that observed with the AG1478 treatment alone” and the “synergy/antagonism value F” value ([1]; 4 uM AG1478 with PDT) was 0.18±0.09. The “synergy/antagonism value F” value ([1]; 5 uM AG1478 with PDT) was 0.17±0.08, the “average survival fraction, TKI treatment only” value ([1]; AG1478 72 hrs, mean of three independent experiments (FIG. 6: 4 and 5 μM TKI)) was 0.41 and the “average survival fraction, two treatments combined” value ([1]; AG1478 administrated directly after light exposure (PDT), mean of three independent experiments) was 0.16. For the same molecule, the “synergy/antagonism value F, mean and st. error” value ([1]; AG1478 between 1 and 5 μM with PDT, p=0.005) was 0.15 ± 0.05, the “synergy/antagonism parameter F of the experiments” value ([1]; AG1478 with PDT, three independent experiments) was “positive and statistically significant from 0” and the “calculated additive effect of the two treatments (SFadd)” value ([1]; SFPDT×SFTKI) was 0.24.
For `O=S(=O)(O)c1ccc(-c2c3nc(c(-c4ccc(S(=O)(=O)O)cc4)c4ccc([nH]4)c(-c4ccccc4)c4nc(c(-c5ccccc5)c5ccc2[nH]5)C=C4)C=C3)cc1` [PDT, meso-tetraphenylporphine with two sulfonate groups on adjacent phenyl rings], the “phosphorylated EGFR after PDT alone” value (EGFR; 1-4 hrs after PDT with LD50, A-431 cells) was “No decrease in phosphorylated EGFR was observed”, the “phospho-EGFR after PDT alone” value (EGFR; measured 1 hour after PDT, doses reducing relative viability up to 10% of untreated, A-431 cells) was “did not result in a pronounced reduction” and the “average survival fraction, PDT treatment only” value ([1]; TPPS2a 0.1 ug/ml and blue light, mean of three independent experiments) was 0.61.
In the case of `C#Cc1cccc(Nc2ncnc3cc(OCCOC)c(OCCOC)cc23)c1` [erlotinib], the typical blood concentrations [2] is given as 1 to 10 µM, the “erlotinib dose at which 20% cell killing was achieved” value ([3]; 2 min illumination, TPCS2a 0.4 μg/ml) is given as “about 100 μM” and the “erlotinib dose at which 20% cell killing was achieved” value ([3]; 3 min illumination, TPCS2a 0.4 μg/ml) is given as “about 100 μM”. The “erlotinib dose at which 20% cell killing was achieved” value ([3]; 4 min illumination, TPCS2a 0.4 μg/ml) was “about 10 μM”, the “erlotinib dose needed to induce 30% cell killing” value ([4]; 2 min illumination, TPCS2a 0.2 μg/ml) was 14 µM and the “erlotinib dose needed to induce 30% cell killing” value ([4]; 3 min illumination, TPCS2a 0.2 μg/ml) was 4 µM. The “potentiation of the effect by photochemical internalisation” value ([4]; erlotinib, NCI-H460, 3 min versus no illumination) was 10 times and the “erlotinib dose needed to induce 30% cell killing” value ([4]; no illumination) was 43 µM.
In the case of `Cc1ccc(NC(=O)c2ccc(CN3CCN(C)CC3)cc2)cc1Nc1nccc(-c2cccnc2)n1` [imatinib], the “cytotoxicity of imatinib alone” value (A431 cells; 0 s illumination, 72 hours) is reported as “only modest cytotoxicity even at the highest dose”, the “cytotoxic effect with illumination” value (A431 cells; TPCS2a 0.1 μg/mL, 60 or 120 s illumination, corrected for photochemical treatment alone) is reported as “illumination increased the cytotoxic effect of imatinib in a light dose-dependent manner” and the “cytotoxicity versus photochemical treatment alone” value ([5]; imatinib 5×10^-6 M, TPCS2a 0.1 μg/mL, illuminated 1, 2 or 4 minutes, 72 hour incubation) is reported as “substantially higher cytotoxicity”. For the same molecule, the “effect on cell survival” value ([5]; imatinib 5×10^-6 M, without illumination, TPCS2a-treated A431 cells, 72 hour incubation) was “no significant effect on cell survival”.
In the case of `Cc1cn(-c2cc(NC(=O)c3ccc(C)c(Nc4nccc(-c5cccnc5)n4)c3)cc(C(F)(F)F)c2)cn1` [nilotinib], the typical blood concentrations [2] is given as 1 to 5 µM, the IC50 ([3]; 0 h, 0 min illumination) is given as ~20 µM and the IC50 ([3]; 4 min, 4 min illumination, TPCS2a 0.4 μg/ml) is given as ~10 µM. For the same molecule, the IC50 ([4]; NCI-H460, 0 h) was 6 µM and the IC50 ([4]; NCI-H460, 5 min) was ~1.7 µM.
For “tetraphenyl chlorin disulfonate [TPCS2a]”, the “cell survival, illumination alone” value ([5]; TPCS2a 0.1 μg/mL, illuminated 1, 2 or 4 minutes, no imatinib) was “cell survival decreases with increasing illumination time in a dose-dependent manner”.
